Reference: patent publication EP0369744B1, “Xanthine derivatives, process for their preparation and pharmaceutical compositions” (SMITHKLINE BEECHAM PHARMA GmbH, priority 1988, dated 1990)

Test system: gerbils
Assay: Delayed neuronal death in gerbils after transient forebrain ischaemia
Type: in vivo
Experimental: Ischaemia was produced in adult male gerbils by occlusion of both common carotid arteries for 3 minutes under halothane/nitrous oxide anaesthesia. During surgery the animals were placed upon a warming blanket. The ischaemia led to neuronal degeneration and to disturbed brain function.
Brains were removed 2 weeks later and 12 µm thick coronal slices were examined light microscopically for neuronal degeneration.
Three groups of animals were used: • 1. sham ligated controls • 2. solvent-treated ligated controls • 3. compound-treated ligated animals The compound was administered 1 hour before the ligation period.
Means ± SEM (n) of histopathological score [HPS] which reflects the degree of neuronal damage in the hippocampal CA1 field: 0 = no damaged neurons 1 = mild necrosis 2 = moderate necrosis 3 = severe necrosis 4 = complete necrosis

O=c1c2[nH]cnc2n(CC2CC2)c(=O)n1CC1CC1 [Example 1, 1,3-Di-cyclopropylmethyl xanthine]
ischaemia induced neuronal degeneration (conclusion): significantly prevented ischaemia induced neuronal degeneration
